In ChEMBL document CHEMBL4507269, “Data for DCP probe BAY-386” (2021):

Tests used:
[1] = target: Somatostatin receptor type 4 (Homo sapiens) (UniProt P31391); experiment: sst4 (h) Eurofins-Cerep Cellular and Nuclear Receptor Functional Assays; conditions: Compound concentration 10.0 uM
[2] = target: Serine/threonine-protein kinase TAO2 (Homo sapiens) (UniProt Q9UL54); conditions: Compound concentration 1000.0 nM
[3] = target: Motilin receptor (Homo sapiens) (UniProt O43193); experiment: motilin (h) Eurofins-Cerep Cellular and Nuclear Receptor Functional Assays; conditions: Compound concentration 10.0 uM
Sequence of Motilin receptor (Homo sapiens) (O43193 whole entry): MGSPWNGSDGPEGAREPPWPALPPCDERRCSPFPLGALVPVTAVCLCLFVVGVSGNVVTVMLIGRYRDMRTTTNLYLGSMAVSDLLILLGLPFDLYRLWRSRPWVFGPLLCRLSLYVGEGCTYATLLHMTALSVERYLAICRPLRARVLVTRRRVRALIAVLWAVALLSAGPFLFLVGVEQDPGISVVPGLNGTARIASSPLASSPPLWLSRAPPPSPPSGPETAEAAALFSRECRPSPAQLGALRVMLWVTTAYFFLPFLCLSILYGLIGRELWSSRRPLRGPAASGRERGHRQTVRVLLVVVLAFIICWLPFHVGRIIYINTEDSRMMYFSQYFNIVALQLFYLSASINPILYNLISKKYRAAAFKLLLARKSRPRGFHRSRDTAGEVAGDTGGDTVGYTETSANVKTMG

[4] = target: Dual specificity tyrosine-phosphorylation-regulated kinase 1B (Homo sapiens) (UniProt Q9Y463); conditions: Compound concentration 1000.0 nM
Sequence of Dual specificity tyrosine-phosphorylation-regulated kinase 1B (Homo sapiens) (Q9Y463 whole entry, looked up): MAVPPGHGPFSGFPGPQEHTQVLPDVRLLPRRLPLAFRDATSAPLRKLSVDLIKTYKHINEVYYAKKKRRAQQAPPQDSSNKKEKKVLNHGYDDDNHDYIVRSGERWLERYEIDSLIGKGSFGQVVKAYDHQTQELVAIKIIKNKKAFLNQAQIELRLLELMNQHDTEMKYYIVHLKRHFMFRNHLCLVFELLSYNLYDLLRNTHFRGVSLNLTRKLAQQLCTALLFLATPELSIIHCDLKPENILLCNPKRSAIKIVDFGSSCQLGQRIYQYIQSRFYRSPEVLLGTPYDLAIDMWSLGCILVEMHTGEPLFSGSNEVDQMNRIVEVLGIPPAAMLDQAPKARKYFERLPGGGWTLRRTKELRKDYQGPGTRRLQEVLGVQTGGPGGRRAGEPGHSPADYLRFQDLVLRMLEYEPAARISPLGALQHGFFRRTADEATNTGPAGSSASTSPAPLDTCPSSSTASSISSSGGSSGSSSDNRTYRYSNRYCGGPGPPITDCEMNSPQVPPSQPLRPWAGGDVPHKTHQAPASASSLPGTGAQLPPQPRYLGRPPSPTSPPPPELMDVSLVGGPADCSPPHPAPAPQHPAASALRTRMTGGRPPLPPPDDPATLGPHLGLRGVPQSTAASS

[5] = target: Serine/threonine-protein kinase pim-1 (Homo sapiens) (UniProt P11309); conditions: Compound concentration 1000.0 nM
[6] = target: NUAK family SNF1-like kinase 1 (Homo sapiens) (UniProt O60285); conditions: Compound concentration 1000.0 nM
[7] = tested on: Phosphatidylinositol 4,5-bisphosphate 3-kinase catalytic subunit alpha isoform (Homo sapiens), P42336 [M1043I]; conditions: Compound concentration 1000.0 nM
[8] = target: Serine/threonine-protein kinase MRCK gamma (Homo sapiens) (UniProt Q6DT37); conditions: Compound concentration 1000.0 nM
[9] = tested on: Proto-oncogene tyrosine-protein kinase receptor Ret (Homo sapiens), P07949 [M918T]; conditions: Compound concentration 1000.0 nM
[10] = tested on: Phosphatidylinositol 4,5-bisphosphate 3-kinase catalytic subunit alpha isoform (Homo sapiens), P42336 [E545A]; conditions: Compound concentration 1000.0 nM
[11] = tested on: Tyrosine-protein kinase ABL1 (Homo sapiens), P00519 [F317I]; conditions: Compound concentration 1000.0 nM
[12] = tested on: eIF-2-alpha kinase GCN2 (Homo sapiens), Q9P2K8 [S808G]; conditions: Compound concentration 1000.0 nM
[13] = tested on: Tyrosine-protein kinase ABL1 (Homo sapiens), P00519 [H396P]; conditions: Compound concentration 1000.0 nM
[14] = target: Tyrosine-protein kinase ZAP-70 (Homo sapiens) (UniProt P43403); conditions: Compound concentration 1000.0 nM
[15] = tested on: Epidermal growth factor receptor (Homo sapiens), P00533 [UNDEFINED MUTATION]; conditions: Compound concentration 1000.0 nM
[16] = target: Ribosomal protein S6 kinase alpha-2 (Homo sapiens) (UniProt Q15349); conditions: Compound concentration 1000.0 nM
[17] = target: Activin receptor type-1-like (Homo sapiens) (UniProt P37023); conditions: Compound concentration 1000.0 nM
[18] = target: Beta-1 adrenergic receptor (Homo sapiens) (UniProt P08588); experiment: beta1 (h) Eurofins-Cerep Cellular and Nuclear Receptor Functional Assays; conditions: Compound concentration 10.0 uM
Sequence of Beta-1 adrenergic receptor (Homo sapiens) (P08588 whole entry, looked up): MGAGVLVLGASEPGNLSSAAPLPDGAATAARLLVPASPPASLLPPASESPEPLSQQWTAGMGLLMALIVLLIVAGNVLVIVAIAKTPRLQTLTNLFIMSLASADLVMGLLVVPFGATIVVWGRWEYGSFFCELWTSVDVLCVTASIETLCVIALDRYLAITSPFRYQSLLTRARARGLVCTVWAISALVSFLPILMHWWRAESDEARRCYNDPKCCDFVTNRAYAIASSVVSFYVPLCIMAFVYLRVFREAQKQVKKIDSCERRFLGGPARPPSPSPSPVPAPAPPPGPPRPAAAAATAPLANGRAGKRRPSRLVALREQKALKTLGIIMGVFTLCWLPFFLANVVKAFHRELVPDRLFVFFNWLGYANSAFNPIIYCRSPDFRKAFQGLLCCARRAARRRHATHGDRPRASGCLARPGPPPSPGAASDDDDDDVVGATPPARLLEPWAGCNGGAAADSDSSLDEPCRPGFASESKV

[19] = target: RAC-gamma serine/threonine-protein kinase (Homo sapiens) (UniProt Q9Y243); conditions: Compound concentration 1000.0 nM
[20] = target: Mitogen-activated protein kinase kinase kinase 7 (Homo sapiens) (UniProt O43318); conditions: Compound concentration 1000.0 nM
[21] = target: Dual specificity protein kinase CLK2 (Homo sapiens) (UniProt P49760); conditions: Compound concentration 1000.0 nM
Sequence of Dual specificity protein kinase CLK2 (Homo sapiens) (P49760 whole entry, looked up): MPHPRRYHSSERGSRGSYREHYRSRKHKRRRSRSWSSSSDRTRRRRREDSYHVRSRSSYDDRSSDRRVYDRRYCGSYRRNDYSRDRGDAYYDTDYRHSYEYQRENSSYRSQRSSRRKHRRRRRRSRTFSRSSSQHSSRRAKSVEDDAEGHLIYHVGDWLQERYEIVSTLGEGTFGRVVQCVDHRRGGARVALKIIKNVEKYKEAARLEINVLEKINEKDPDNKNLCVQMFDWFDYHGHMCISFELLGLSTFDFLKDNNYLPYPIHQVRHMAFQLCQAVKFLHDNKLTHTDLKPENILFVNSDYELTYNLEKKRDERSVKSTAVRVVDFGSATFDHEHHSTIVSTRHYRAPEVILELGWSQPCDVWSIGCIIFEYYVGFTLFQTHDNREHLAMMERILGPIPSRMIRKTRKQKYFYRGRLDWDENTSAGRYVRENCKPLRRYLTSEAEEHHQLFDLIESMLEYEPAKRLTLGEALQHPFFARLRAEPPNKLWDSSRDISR

[22] = target: Serine/threonine-protein kinase TBK1 (Homo sapiens) (UniProt Q9UHD2); conditions: Compound concentration 1000.0 nM
[23] = target: Tyrosine-protein kinase Fer (Homo sapiens) (UniProt P16591); conditions: Compound concentration 1000.0 nM
Sequence of Tyrosine-protein kinase Fer (Homo sapiens) (P16591 whole entry, looked up): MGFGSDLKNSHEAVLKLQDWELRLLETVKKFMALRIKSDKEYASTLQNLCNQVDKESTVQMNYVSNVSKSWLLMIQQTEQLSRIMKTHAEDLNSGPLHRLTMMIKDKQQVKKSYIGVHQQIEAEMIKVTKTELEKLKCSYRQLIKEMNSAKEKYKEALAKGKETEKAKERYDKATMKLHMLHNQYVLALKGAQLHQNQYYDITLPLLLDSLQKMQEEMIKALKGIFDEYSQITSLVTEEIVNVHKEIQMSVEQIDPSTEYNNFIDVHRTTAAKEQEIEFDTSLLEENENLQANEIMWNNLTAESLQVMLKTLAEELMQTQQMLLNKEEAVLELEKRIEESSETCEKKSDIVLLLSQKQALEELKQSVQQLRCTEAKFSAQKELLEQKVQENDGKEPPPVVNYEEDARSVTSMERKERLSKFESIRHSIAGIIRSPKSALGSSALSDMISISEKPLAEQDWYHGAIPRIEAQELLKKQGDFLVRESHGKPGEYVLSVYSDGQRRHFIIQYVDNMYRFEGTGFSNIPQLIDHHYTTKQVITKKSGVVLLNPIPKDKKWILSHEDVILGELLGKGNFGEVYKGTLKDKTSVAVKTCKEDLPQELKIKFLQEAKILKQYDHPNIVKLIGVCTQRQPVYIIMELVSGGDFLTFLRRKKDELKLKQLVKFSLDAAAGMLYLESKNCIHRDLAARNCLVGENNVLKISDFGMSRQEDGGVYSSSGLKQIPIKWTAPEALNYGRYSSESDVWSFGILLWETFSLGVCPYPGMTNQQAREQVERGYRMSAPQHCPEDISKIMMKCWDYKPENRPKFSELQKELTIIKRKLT

[24] = target: Serine/threonine-protein kinase SIK2 (Homo sapiens) (UniProt Q9H0K1); conditions: Compound concentration 1000.0 nM
[25] = target: Serine/threonine-protein kinase 4 (Homo sapiens) (UniProt Q13043); conditions: Compound concentration 1000.0 nM
[26] = tested on: Receptor-type tyrosine-protein kinase FLT3 (Homo sapiens), P36888 [UNDEFINED MUTATION]; conditions: Compound concentration 1000.0 nM
[27] = target: Alpha-2C adrenergic receptor (Homo sapiens) (UniProt P18825); conditions: Compound concentration 10.0 uM
[28] = target: Mitogen-activated protein kinase 4 (Homo sapiens) (UniProt P31152); conditions: Compound concentration 1000.0 nM
[29] = target: TGF-beta receptor type-1 (Homo sapiens) (UniProt P36897); conditions: Compound concentration 1000.0 nM
Sequence of TGF-beta receptor type-1 (Homo sapiens) (P36897 whole entry): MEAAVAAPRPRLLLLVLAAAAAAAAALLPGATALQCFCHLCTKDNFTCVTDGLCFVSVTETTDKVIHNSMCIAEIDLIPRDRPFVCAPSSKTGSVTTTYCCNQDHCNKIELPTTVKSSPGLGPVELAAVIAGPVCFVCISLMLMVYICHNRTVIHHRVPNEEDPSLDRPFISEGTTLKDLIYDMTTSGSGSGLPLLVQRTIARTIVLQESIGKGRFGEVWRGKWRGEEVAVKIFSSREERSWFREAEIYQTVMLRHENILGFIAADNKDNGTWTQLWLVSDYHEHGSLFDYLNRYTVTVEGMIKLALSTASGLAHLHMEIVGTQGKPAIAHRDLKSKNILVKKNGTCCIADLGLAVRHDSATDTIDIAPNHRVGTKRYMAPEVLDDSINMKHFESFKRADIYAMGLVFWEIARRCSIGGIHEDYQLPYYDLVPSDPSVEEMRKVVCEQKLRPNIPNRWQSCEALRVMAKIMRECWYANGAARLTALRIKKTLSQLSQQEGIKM

[30] = tested on: Fibroblast growth factor receptor 3 (Homo sapiens), P22607 [G697C]; conditions: Compound concentration 1000.0 nM
[31] = target: Tyrosine-protein kinase JAK2 (Homo sapiens) (UniProt O60674); conditions: Compound concentration 1000.0 nM
[32] = target: Serine/threonine-protein kinase 24 (Homo sapiens) (UniProt Q9Y6E0); conditions: Compound concentration 1000.0 nM
[33] = target: T1, Prostaglandin E2 receptor EP3 subtype (Homo sapiens) (UniProt P43115); experiment: EP3 (h) Eurofins-Cerep Cellular and Nuclear Receptor Functional Assays; conditions: Compound concentration 10.0 uM
T1 sequence (whole entry): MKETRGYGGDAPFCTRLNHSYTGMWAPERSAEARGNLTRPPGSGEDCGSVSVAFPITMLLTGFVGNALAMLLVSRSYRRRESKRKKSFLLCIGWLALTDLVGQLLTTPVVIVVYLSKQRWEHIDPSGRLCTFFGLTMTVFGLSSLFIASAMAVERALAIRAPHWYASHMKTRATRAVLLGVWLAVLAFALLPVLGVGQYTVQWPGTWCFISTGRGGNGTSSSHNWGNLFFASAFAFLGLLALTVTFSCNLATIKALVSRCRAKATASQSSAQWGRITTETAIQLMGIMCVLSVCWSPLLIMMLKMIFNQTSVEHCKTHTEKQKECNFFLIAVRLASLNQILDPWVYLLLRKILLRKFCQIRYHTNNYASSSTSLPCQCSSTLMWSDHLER

[34] = target: Serine/threonine-protein kinase SIK3 (Homo sapiens) (UniProt Q9Y2K2); conditions: Compound concentration 1000.0 nM
[35] = target: Cyclin-dependent kinase 7 (Homo sapiens) (UniProt P50613); conditions: Compound concentration 1000.0 nM
Rattus norvegicus = organism: Rattus norvegicus; conditions: Compound concentration 10.0 uM
[36] = target: MAP kinase-activated protein kinase 2 (Homo sapiens) (UniProt P49137); conditions: Compound concentration 1000.0 nM
[37] = target: TGF-beta receptor type-2 (Homo sapiens) (UniProt P37173); conditions: Compound concentration 1000.0 nM
[38] = target: Protein kinase C eta type (Homo sapiens) (UniProt P24723); conditions: Compound concentration 1000.0 nM

Sequence of Somatostatin receptor type 4 (Homo sapiens) (P31391 whole entry): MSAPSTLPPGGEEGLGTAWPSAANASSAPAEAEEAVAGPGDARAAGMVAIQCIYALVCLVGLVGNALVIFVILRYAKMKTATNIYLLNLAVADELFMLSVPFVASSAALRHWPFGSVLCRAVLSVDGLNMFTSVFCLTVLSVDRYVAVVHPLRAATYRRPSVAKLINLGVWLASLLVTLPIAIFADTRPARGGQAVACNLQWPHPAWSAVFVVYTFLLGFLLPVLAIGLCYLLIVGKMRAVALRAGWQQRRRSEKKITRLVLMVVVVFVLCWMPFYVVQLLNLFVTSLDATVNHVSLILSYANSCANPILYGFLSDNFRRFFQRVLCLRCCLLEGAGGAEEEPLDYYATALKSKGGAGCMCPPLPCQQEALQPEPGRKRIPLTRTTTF
Sequence of Serine/threonine-protein kinase TAO2 (Homo sapiens) (Q9UL54 whole entry): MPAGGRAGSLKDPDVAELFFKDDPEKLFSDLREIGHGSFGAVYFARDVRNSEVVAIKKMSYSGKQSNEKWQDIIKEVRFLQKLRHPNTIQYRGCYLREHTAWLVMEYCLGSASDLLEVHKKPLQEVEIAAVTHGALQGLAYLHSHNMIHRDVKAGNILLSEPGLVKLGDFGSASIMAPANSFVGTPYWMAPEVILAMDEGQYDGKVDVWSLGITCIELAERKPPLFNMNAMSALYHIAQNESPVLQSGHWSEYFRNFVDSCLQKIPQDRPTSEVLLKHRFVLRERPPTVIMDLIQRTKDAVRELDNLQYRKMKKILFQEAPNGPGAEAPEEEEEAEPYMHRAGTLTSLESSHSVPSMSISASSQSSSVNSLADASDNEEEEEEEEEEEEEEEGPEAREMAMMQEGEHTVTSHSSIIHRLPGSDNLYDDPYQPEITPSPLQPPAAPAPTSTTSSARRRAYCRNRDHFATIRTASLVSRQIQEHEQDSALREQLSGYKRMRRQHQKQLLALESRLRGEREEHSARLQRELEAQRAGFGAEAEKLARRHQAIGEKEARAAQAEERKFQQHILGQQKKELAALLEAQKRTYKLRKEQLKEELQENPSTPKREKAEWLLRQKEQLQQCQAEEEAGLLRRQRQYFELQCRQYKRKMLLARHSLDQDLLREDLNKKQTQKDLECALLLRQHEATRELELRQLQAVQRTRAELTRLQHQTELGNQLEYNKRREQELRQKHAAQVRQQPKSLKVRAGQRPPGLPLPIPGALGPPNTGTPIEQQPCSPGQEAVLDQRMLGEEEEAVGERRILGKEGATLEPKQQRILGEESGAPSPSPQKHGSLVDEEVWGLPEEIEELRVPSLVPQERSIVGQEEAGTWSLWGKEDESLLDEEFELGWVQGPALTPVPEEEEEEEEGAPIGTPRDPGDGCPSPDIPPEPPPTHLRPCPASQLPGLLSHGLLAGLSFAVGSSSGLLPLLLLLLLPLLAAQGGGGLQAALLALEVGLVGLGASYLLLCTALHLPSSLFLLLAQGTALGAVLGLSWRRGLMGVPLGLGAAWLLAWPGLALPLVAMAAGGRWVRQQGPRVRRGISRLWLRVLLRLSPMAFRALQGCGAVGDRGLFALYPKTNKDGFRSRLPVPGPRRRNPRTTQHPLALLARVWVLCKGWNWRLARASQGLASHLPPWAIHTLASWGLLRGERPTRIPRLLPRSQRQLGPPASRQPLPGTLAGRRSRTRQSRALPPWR

## O=C(N1CCS(=O)(=O)CC1)N1C[C@H](c2ccc(OC(F)(F)F)cc2)C[C@H](c2nc(C3CC3)no2)C1 [BAY-386]
[1]
  % Inhibition of Control Agonist Response (Mean n=2): -3.3%
  % of Control Agonist Response (Mean n=2): -13%
[2]
  residual activity: 100%
[3]
  % Inhibition of Control Agonist Response (Mean n=2): 29.2%
  % of Control Agonist Response (Mean n=2): 16.7%
[4]
  residual activity: 93%
[5]
  residual activity: 100%
[6]
  residual activity: 97%
[7]
  residual activity: 100%
[8]
  residual activity: 100%
[9]
  residual activity: 92%
[10]
  residual activity: 100%
[11]
  residual activity: 100%
[12]
  residual activity: 100%
[13]
  residual activity: 100%
[14]
  residual activity: 90%
[15]
  residual activity: 100%
[16]
  residual activity: 100%
[17]
  residual activity: 100%
[18]
  % Inhibition of Control Agonist Response (Mean n=2): -0.2%
  % of Control Agonist Response (Mean n=2): 3.4%
[19]
  residual activity: 100%
[20]
  residual activity: 100%
[21]
  residual activity: 100%
[22]
  residual activity: 94%
[23]
  residual activity: 100%
[24]
  residual activity: 100%
[25]
  residual activity: 100%
[26]
  residual activity: 93%
[27]
  inhibition: 11.6%
[28]
  residual activity: 100%
[29]
  residual activity: 100%
[30]
  residual activity: 100%
[31]
  residual activity: 75%
[32]
  residual activity: 97%
[33]
  % Inhibition of Control Agonist Response (Mean n=2): -8%
  % of Control Agonist Response (Mean n=2): 4.5%
[34]
  residual activity: 77%
[35]
  residual activity: 100%
Rattus norvegicus
  inhibition: 14.9%
[36]
  residual activity: 100%
[37]
  residual activity: 100%
[38]
  residual activity: 100%

## Cc1noc([C@H]2C[C@@H](c3ccc(C(F)(F)F)cc3)CN(C(=O)N3CCS(=O)(=O)C3)C2)n1 [BAY-448]
[1]
  % Inhibition of Control Agonist Response (Mean n=2): 1.2%
  % of Control Agonist Response (Mean n=2): -2%
[2]
  residual activity: 76%
[3]
  % Inhibition of Control Agonist Response (Mean n=2): 0.9%
  % of Control Agonist Response (Mean n=2): 6.9%
[4]
  residual activity: 76%
[5]
  residual activity: 100%
[6]
  residual activity: 100%
[7]
  residual activity: 100%
[8]
  residual activity: 100%
[9]
  residual activity: 100%
[10]
  residual activity: 64%
[11]
  residual activity: 100%
[12]
  residual activity: 28%
[13]
  residual activity: 100%
[14]
  residual activity: 100%
[15]
  residual activity: 100%
[16]
  residual activity: 92%
[17]
  residual activity: 100%
[18]
  % Inhibition of Control Agonist Response (Mean n=2): 6.8%
  % of Control Agonist Response (Mean n=2): 0.3%
[19]
  residual activity: 100%
[20]
  residual activity: 100%
[21]
  residual activity: 100%
[22]
  residual activity: 68%
[23]
  residual activity: 82%
[24]
  residual activity: 100%
[25]
  residual activity: 100%
[26]
  residual activity: 100%
[27]
  inhibition: 10.5%
[28]
  residual activity: 100%
[29]
  residual activity: 100%
[30]
  residual activity: 84%
[31]
  residual activity: 100%
[32]
  residual activity: 100%
[33]
  % Inhibition of Control Agonist Response (Mean n=2): 0.6%
  % of Control Agonist Response (Mean n=2): -0.6%
[34]
  residual activity: 78%
[35]
  residual activity: 89%
Rattus norvegicus
  inhibition: 7.2%
[36]
  residual activity: 97%
[37]
  residual activity: 100%
[38]
  residual activity: 95%
